According to ChEMBL document CHEMBL1121716, “Potential organ- or tumor-imaging agents. 21. Acyl-labeled esters of cholesterol” (J Med Chem, 1981):

Tests used:
Conditions in all cases: in vivo
Rattus norvegicus [1] = test: Accumulation in thyroid was evaluated by distribution of radioactivity at 0.5 hr after intravenous administration of 4-14C radiolabeled Cholesteryl Oleate to Rats; format: ADME, organism-based, Thyroid gland
Rattus norvegicus [2] = test: Accumulation in adrenal cortex was evaluated by distribution of radioactivity at 0.5 h after intravenous administration of oleate 1-14C radiolabeled Cholesteryl Oleate to Rats; format: ADME, organism-based
Rattus norvegicus [3] = test: Accumulation in liver was evaluated by distribution of radioactivity at 0.5 hr after intravenous administration of 4-14C radiolabeled Cholesteryl Oleate to Rats; format: ADME, organism-based
Rattus norvegicus [4] = test: Accumulation in liver was evaluated by distribution of radioactivity at 0.5 hr after intravenous administration of oleate 1-14C radiolabeled Cholesteryl Oleate to Rats; format: ADME, organism-based
Rattus norvegicus [5] = test: Accumulation in thyroid was evaluated by distribution of radioactivity at 0.5 hr after intravenous administration of oleate 1-14C radiolabeled Cholesteryl Oleate to Rats; format: ADME, organism-based, Thyroid gland
Rattus norvegicus [6] = test: Accumulation in blood was evaluated by distribution of radioactivity at 0.5 hr after intravenous administration of 4-14C radiolabeled Cholesteryl Oleate to Rats; format: ADME, organism-based
Rattus norvegicus [7] = test: Accumulation in adrenal cortex was evaluated by distribution of radioactivity at 0.5 hr after intravenous administration of 4-14C radiolabeled Cholesteryl Oleate to Rats; format: ADME, organism-based
Rattus norvegicus [8] = test: Accumulation in blood was evaluated by distribution of radioactivity at 0.5 hr after intravenous administration of oleate 1-14C radiolabeled Cholesteryl Oleate to Rats; format: ADME, organism-based
Rattus norvegicus [9] = test: Accumulation in ovary was evaluated by distribution of radioactivity at 0.5 hr after intravenous administration of 4-14C radiolabeled Cholesteryl Oleate to Rats; format: ADME, organism-based, Female gonad
Rattus norvegicus [10] = test: Accumulation in ovary was evaluated by distribution of radioactivity at 0.5 hr after intravenous administration of oleate 1-14C radiolabeled Cholesteryl Oleate to Rats; format: ADME, organism-based, Female gonad
Rattus norvegicus [11] = test: Accumulation in blood was evaluated by distribution of radioactivity at 0.5 hr after intravenous administration of radioiodinated cholesteryl 2,3,5-tri[125I]iodobenzoate to Rats; format: ADME, organism-based
Rattus norvegicus [12] = test: Accumulation in liver was evaluated by distribution of radioactivity at 24 hr after intravenous administration of radioiodinated cholesteryl 2,3,5-tri[125I]iodobenzoate to Rats; format: ADME, organism-based
Rattus norvegicus [13] = test: Accumulation in ovary was evaluated by distribution of radioactivity at 0.5 hr after intravenous administration of radioiodinated cholesteryl 2,3,5-tri[125I]iodobenzoate to Rats; format: ADME, organism-based, Female gonad
Rattus norvegicus [14] = test: Accumulation in lung was evaluated by distribution of radioactivity at 24 hr after intravenous administration of radioiodinated cholesteryl 2,3,5-tri[125I]iodobenzoate to Rats; format: ADME, organism-based
Rattus norvegicus [15] = test: Accumulation in blood was evaluated by distribution of radioactivity at 24 hr after intravenous administration of radioiodinated cholesteryl 2,3,5-tri[125I]iodobenzoate to Rats; format: ADME, organism-based
Rattus norvegicus [16] = test: Accumulation in spleen was evaluated by distribution of radioactivity at 0.5 hr after intravenous administration of radioiodinated cholesteryl 2,3,5-tri[125I]iodobenzoate to Rats; format: ADME, organism-based
Rattus norvegicus [17] = test: Accumulation in ovary was evaluated by distribution of radioactivity at 24 hr after intravenous administration of radioiodinated cholesteryl 2,3,5-tri[125I]iodobenzoate to Rats; format: ADME, organism-based, Female gonad
Rattus norvegicus [18] = test: Accumulation in lung was evaluated by distribution of radioactivity at 0.5 hr after intravenous administration of radioiodinated cholesteryl 2,3,5-tri[125I]iodobenzoate to Rats; format: ADME, organism-based
Rattus norvegicus [19] = test: Accumulation in thyroid was evaluated by distribution of radioactivity at 24 hr after intravenous administration of radioiodinated cholesteryl 2,3,5-tri[125I]iodobenzoate to Rats; format: ADME, organism-based, Thyroid gland
Rattus norvegicus [20] = test: Accumulation in liver was evaluated by distribution of radioactivity at 0.5 hr after intravenous administration of radioiodinated cholesteryl 2,3,5-tri[125I]iodobenzoate to Rats; format: ADME, organism-based
Rattus norvegicus [21] = test: Accumulation in thyroid was evaluated by distribution of radioactivity at 0.5 hr after intravenous administration of radioiodinated cholesteryl 2,3,5-tri[125I]iodobenzoate to Rats; format: ADME, organism-based, Thyroid gland
Rattus norvegicus [22] = test: Accumulation in adrenal cortex was evaluated by distribution of radioactivity at 24 hr after intravenous administration of radioiodinated cholesteryl 2,3,5-tri[125I]iodobenzoate to Rats; format: ADME, organism-based
Rattus norvegicus [23] = test: Accumulation in adrenal cortex was evaluated by distribution of radioactivity at 0.5 hr after intravenous administration of radioiodinated cholesteryl 2,3,5-tri[125I]iodobenzoate to Rats; format: ADME, organism-based
Rattus norvegicus [24] = test: Accumulation in spleen was evaluated by distribution of radioactivity at 24 h after intravenous administration of radioiodinated cholesteryl 2,3,5-tri[125I]iodobenzoate to Rats; format: ADME, organism-based

Compound: CCCCCCCC/C=C\CCCCCCCC(=O)OC1CCC2(C)C(=CCC3C2CCC2(C)C(C(C)CCCC(C)C)CCC32)C1 (centres undefined)
- Dose/g of tissue (Rattus norvegicus [1]): 0.446%
- Dose/g of tissue (Rattus norvegicus [2]): 2.448%
- Dose/g of tissue (Rattus norvegicus [3]): 1.569%
- Dose/g of tissue (Rattus norvegicus [4]): 1.236%
- Dose/g of tissue (Rattus norvegicus [5]): 0.344%
- Dose/g of tissue (Rattus norvegicus [6]): 5.78%
- Dose/g of tissue (Rattus norvegicus [7]): 3.85%
- Dose/g of tissue (Rattus norvegicus [8]): 5.196%
- Dose/g of tissue (Rattus norvegicus [9]): 2.815%
- Dose/g of tissue (Rattus norvegicus [10]): 2.088%

Compound: CC(C)CCCC(C)C1CCC2C3CC=C4CC(OC(=O)c5cc(I)cc(I)c5I)CCC4(C)C3CCC12C (centres undefined)
- Dose/g of tissue (Rattus norvegicus [11]): 5.46%
- Dose/g of tissue (Rattus norvegicus [12]): 5.106%
- Dose/g of tissue (Rattus norvegicus [13]): 6.148%
- Dose/g of tissue (Rattus norvegicus [14]): 0.703%
- Dose/g of tissue (Rattus norvegicus [15]): 0.568%
- Dose/g of tissue (Rattus norvegicus [16]): 0.57%
- Dose/g of tissue (Rattus norvegicus [17]): 16.19%
- Dose/g of tissue (Rattus norvegicus [18]): 1.49%
- Dose/g of tissue (Rattus norvegicus [19]): 2.63%
- Dose/g of tissue (Rattus norvegicus [20]): 2.726%
- Dose/g of tissue (Rattus norvegicus [21]): 0.47%
- Dose/g of tissue (Rattus norvegicus [22]): 9.032%
- Dose/g of tissue (Rattus norvegicus [23]): 5.455%
- Dose/g of tissue (Rattus norvegicus [24]): 1.68%
